From ChEMBL document CHEMBL1148620 (J Med Chem, 2006)

Columns and labels:
Melanocortin receptor 4 [1] = target: T1, Melanocortin receptor 4 (Homo sapiens, UniProt P32245, Y268F); assay: Displacement of [125I]NDP-alpha-MSH from mutant MC4R Y268F expressed in HEK293 cells; assay type: cell-based
Melanocortin receptor 4 [2] = target: T2, Melanocortin receptor 4 (Homo sapiens, UniProt P32245, I125A); assay: Agonist activity at the mutant MC4R I125A expressed in HEK293 cells by cAMP accumulation; assay type: functional, cell-based
Melanocortin receptor 4 [3] = target: T3, Melanocortin receptor 4 (Homo sapiens, UniProt P32245); assay: biochemical
Melanocortin receptor 4 [4] = target: T4, Melanocortin receptor 4 (Homo sapiens, UniProt P32245, Y287A); assay: Agonist activity at the mutant MC4R Y287A expressed in HEK293 cells by cAMP accumulation; assay type: functional, cell-based
Melanocortin receptor 4 [5] = target: T5, Melanocortin receptor 4 (Homo sapiens, UniProt P32245, Y287F); assay: Displacement of [125I]NDP-alpha-MSH from mutant MC4R Y287F expressed in HEK293 cells; assay type: cell-based
Melanocortin receptor 4 [6] = target: T2, Melanocortin receptor 4; assay: Displacement of [125I]NDP-alpha-MSH from mutant MC4R I125A expressed in HEK293 cells; assay type: cell-based
Melanocortin receptor 4 [7] = target: T6, Melanocortin receptor 4 (Homo sapiens, UniProt P32245, Y268A); assay: Displacement of [125I]NDP-alpha-MSH from mutant MC4R Y268A expressed in HEK293 cells; assay type: cell-based
Melanocortin receptor 4 [8] = target: T7, Melanocortin receptor 4 (Homo sapiens, UniProt P32245, F184A); assay: Agonist activity at the mutant MC4R F184A expressed in HEK293 cells by cAMP accumulation; assay type: functional, cell-based
Melanocortin receptor 4 [9] = target: T3, Melanocortin receptor 4; assay: Agonist activity at the human wild type MC4R expressed in HEK293 cells by cAMP accumulation; assay type: functional, cell-based
Melanocortin receptor 4 [10] = target: T8, Melanocortin receptor 4 (Homo sapiens, UniProt P32245, I129A)
Melanocortin receptor 4 [11] = target: T1, Melanocortin receptor 4; assay: Agonist activity at the mutant MC4R Y268F expressed in HEK293 cells by cAMP accumulation; assay type: functional, cell-based
Melanocortin receptor 4 [12] = target: T7, Melanocortin receptor 4; assay: Displacement of [125I]NDP-alpha-MSH from mutant MC4R F184A expressed in HEK293 cells; assay type: cell-based
Melanocortin receptor 4 [13] = target: T9, Melanocortin receptor 4 (Homo sapiens, UniProt P32245, I291A); assay: Agonist activity at the mutant MC4R I291A expressed in HEK293 cells by cAMP accumulation; assay type: functional, cell-based
Melanocortin receptor 4 [14] = target: T5, Melanocortin receptor 4; assay: Agonist activity at the mutant MC4R Y287F expressed in HEK293 cells by cAMP accumulation; assay type: functional, cell-based
Melanocortin receptor 4 [15] = target: T8, Melanocortin receptor 4; assay: biochemical
Melanocortin receptor 4 [16] = target: T6, Melanocortin receptor 4; assay: Agonist activity at the mutant MC4R Y268A expressed in HEK293 cells by cAMP accumulation; assay type: functional, cell-based
Melanocortin receptor 4 [17] = target: T4, Melanocortin receptor 4; assay: Displacement of [125I]NDP-alpha-MSH from mutant MC4R Y287A expressed in HEK293 cells; assay type: cell-based
Melanocortin receptor 4 [18] = target: T1, Melanocortin receptor 4; assay: Antagonist activity at the mutant MC4R Y268F expressed in HEK293 cells by cAMP accumulation; assay type: functional, cell-based
Melanocortin receptor 4 [19] = target: T3, Melanocortin receptor 4; assay: Antagonist activity at the human wild type MC4R expressed in HEK293 cells by cAMP accumulation; assay type: functional, cell-based
Melanocortin receptor 4 [20] = target: T6, Melanocortin receptor 4; assay: Antagonist activity at the mutant MC4R Y268A expressed in HEK293 cells by cAMP accumulation; assay type: functional, cell-based
Melanocortin receptor 4 [21] = target: T2, Melanocortin receptor 4; assay: Antagonist activity at the mutant MC4R I125A expressed in HEK293 cells by cAMP accumulation; assay type: functional, cell-based
Melanocortin receptor 4 [22] = target: T4, Melanocortin receptor 4; assay: Antagonist activity at the mutant MC4R Y287A expressed in HEK293 cells by cAMP accumulation; assay type: functional, cell-based
Melanocortin receptor 4 [23] = target: T7, Melanocortin receptor 4; assay: Antagonist activity at the mutant MC4R F184A expressed in HEK293 cells by cAMP accumulation; assay type: functional, cell-based
Melanocortin receptor 4 [24] = target: T5, Melanocortin receptor 4; assay: Antagonist activity at the mutant MC4R Y287F expressed in HEK293 cells by cAMP accumulation; assay type: functional, cell-based
Melanocortin receptor 4 [25] = target: T9, Melanocortin receptor 4; assay: Antagonist activity at the mutant MC4R I291A expressed in HEK293 cells by cAMP accumulation; assay type: functional, cell-based

T6 sequence (P32245 whole entry Y268A): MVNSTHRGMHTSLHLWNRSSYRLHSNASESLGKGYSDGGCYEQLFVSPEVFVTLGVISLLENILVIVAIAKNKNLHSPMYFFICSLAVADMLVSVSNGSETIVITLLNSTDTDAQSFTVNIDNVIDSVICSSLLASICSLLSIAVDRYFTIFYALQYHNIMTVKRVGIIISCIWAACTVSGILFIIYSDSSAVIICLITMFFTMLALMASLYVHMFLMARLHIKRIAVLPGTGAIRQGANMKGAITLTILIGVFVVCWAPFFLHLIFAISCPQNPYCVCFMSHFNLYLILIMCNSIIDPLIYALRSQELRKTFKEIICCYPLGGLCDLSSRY
T8 sequence (P32245 whole entry I129A): as the sequence (P32245 whole entry Y268A) above, with I129A, A268Y counted along it
T1 sequence (P32245 whole entry Y268F): as the sequence (P32245 whole entry Y268A) above, with A268F counted along it
T7 sequence (P32245 whole entry F184A): as the sequence (P32245 whole entry Y268A) above, with F184A, A268Y counted along it
T4 sequence (P32245 whole entry Y287A): as the sequence (P32245 whole entry Y268A) above, with A268Y, Y287A counted along it
T3 sequence (P32245 whole entry): as the sequence (P32245 whole entry Y268A) above, with A268Y counted along it
T2 sequence (P32245 whole entry I125A): as the sequence (P32245 whole entry Y268A) above, with I125A, A268Y counted along it
T5 sequence (P32245 whole entry Y287F): as the sequence (P32245 whole entry Y268A) above, with A268Y, Y287F counted along it
T9 sequence (P32245 whole entry I291A): as the sequence (P32245 whole entry Y268A) above, with A268Y, I291A counted along it

Row | Ki (Melanocortin receptor 4 [1]) [nM] | EC50 (Melanocortin receptor 4 [2]) [nM] | Ki (Melanocortin receptor 4 [3]) [nM] | EC50 (Melanocortin receptor 4 [4]) [nM] | Ki (Melanocortin receptor 4 [5]) [nM] | Ki (Melanocortin receptor 4 [6]) [nM] | Ki (Melanocortin receptor 4 [7]) [nM] | EC50 (Melanocortin receptor 4 [8]) [nM] | EC50 (Melanocortin receptor 4 [9]) [nM] | EC50 (Melanocortin receptor 4 [10]) [nM] | EC50 (Melanocortin receptor 4 [11]) [nM] | Ki (Melanocortin receptor 4 [12]) [nM] | EC50 (Melanocortin receptor 4 [13]) [nM] | EC50 (Melanocortin receptor 4 [14]) [nM] | Ki (Melanocortin receptor 4 [15]) [nM] | EC50 (Melanocortin receptor 4 [16]) [nM] | Ki (Melanocortin receptor 4 [17]) [nM] | Structure (SMILES) | further results
1 | 275 | 53 | 305 | 418 | 890 | 1250 | 1020 | 1.02 | 9.5 | 1520 | 6.6 | 114 | > 1000 | 10 | 3100 | 33 | 2120 | CN(C)[C@H]1C[C@@H](C(=O)N2CCC(Cn3cncn3)(C3CCCCC3)CC2)[C@H](c2ccc(Cl)cc2)C1 | 
2 | 0.92 |  | 1.5 |  | 1.7 | 1.3 | 40 |  |  |  |  | 0.71 |  |  | 14 |  | 18 | CC[C@H](C)[C@@H]1NC(=O)[C@H]([C@@H](C)O)NC(=O)[C@H](Cc2c[nH]c3ccccc23)NC(=O)[C@H](CCCN=C(N)N)NC(=O)[C@@H](Cc2cccc3ccccc23)NC(=O)[C@H](Cc2c[nH]cn2)NC(=O)[C@H]([C@@H](C)O)NC(=O)[C@H](Cc2ccc(O)cc2)NC(=O)[C@H]([C@@H](C)O)NC(=O)[C@@H]2CCCN2C1=O | IC50 (Melanocortin receptor 4 [18]): 17 nM; IC50 (Melanocortin receptor 4 [19]): 16 nM; IC50 (Melanocortin receptor 4 [20]): 248 nM; IC50 (Melanocortin receptor 4 [21]): 5.8 nM; IC50 (Melanocortin receptor 4 [22]): 121 nM; IC50 (Melanocortin receptor 4 [23]): 11 nM; IC50 (Melanocortin receptor 4 [24]): 8.8 nM; IC50 (Melanocortin receptor 4 [25]): 22 nM
3 | 83 | 202 | 59 | 328 | 90 | 111 | 1370 | 3.2 | 11 | 250 | 12 | 29 | 250 | 9.5 | 710 | 270 | 1490 | CC[C@H](C)[C@@H]1NC(=O)[C@H]([C@@H](C)O)NC(=O)[C@H](Cc2c[nH]c3ccccc23)NC(=O)[C@H](CCCN=C(N)N)NC(=O)[C@@H](Cc2ccccc2)NC(=O)[C@H](Cc2cnc[nH]2)NC(=O)[C@H]([C@@H](C)O)NC(=O)[C@H](Cc2ccc(O)cc2)NC(=O)[C@H](CO)NC(=O)[C@@H]2CCCN2C1=O | 
